Measured values taken from publication PMC8287028 (Frontiers in Veterinary Science, 2021).
Values joined by “and” are separate entries in the source; they are usually repeats but may differ in a detail not shown here. Identical values can stand only once. Like-named read-outs stand apart in the source and are kept apart here.

What was measured:
[1] = system: citrated whole blood; experiment: Tissue-factor activated thromboelastography (TF-TEG) on citrated whole blood of dosed dogs; type: in vivo, dog
Procedure: Catheters were flushed with 0.9% saline, without heparin. […] Coagulation assays were performed on platelet-poor, citrated plasma samples by a reference laboratory (Comparative Coagulation Laboratory, Animal Health Diagnostic Center, Ithaca, NY). […] Residual, uninhibited Factor Xa cleaves the chromogenic substrate such that the inverse of the color change in the reaction mixture is proportional to the drug concentration in the test plasma. […] Assay controls, consisting of human plasma spiked with apixaban (STA Apixaban Controls, Diagnostica Stago) were analyzed before each batch of test samples to confirm assay performance. The apixaban levels in calibrators and controls are defined by the manufacturer from an internal reference assayed by HPLC-MS. […] A mechanical endpoint method (STA Compact, Diagnostica Stago) and human coagulation reagents were used to measure prothrombin time (Thromboplastin LI, Helena Diagnostics, Beaumont, TX) and activated partial thromboplastin time (Dade Actin FS, Dade Behring, Newark, DE). […] Tissue-factor (1:50,000 final dilution) activated TEG was performed using standard equipment (TEG-5000, Haemonetics, Braintree, MA) as previously reported ([35]), with assays conducted per established guidelines ([36]), with a modification to eliminate the rest time to facilitate rapid sample processing. Thromboelastography assays were conducted by experienced operators using four TEG channels and tracings terminated after maximum amplitude was established. Four values were extracted from TEG tracings: reaction time (R-time), clot formation time (K-time), clot formation angle (alpha), and maximum amplitude (MA). Pairwise comparisons between continuous variables were conducted with Wilcoxon matched-pairs signed rank test, while comparisons of more than two groups were conducted using the Friedman test with Dunn's post-hoc adjustment. Specifically, the Wilcoxon matched-pairs signed rank tests were used to compare the complete blood count and serum chemistry values between baseline and the +24 h time point. Comparisons of pharmacodynamic variables between baseline values and those at discrete sampling intervals were performed using the Friedman test with Dunn's post-hoc correction for multiple comparisons. […] Alpha was set at 0.05. Statistical analyses were performed using commercial software (Prism 9, GraphPad, La Jolla, CA).

[2] = system: healthy mixed-breed dogs; experiment: Complete blood count before and after apixaban; type: in vivo, dog; design: RBC: unit not given beside the values; Neut / Lymph / Mono / Eos / Baso / HCT / MCV / MCH / MCHC: unit not given here; details: for Baso / Eos / HCT / Hgb / Lymph / MCH / MCHC / MCV / Mono / Neut / RBC / WBC: individual dogs (Dog 1-6); for WBC: in 10^3/µL (unit assumed)
[3] = system: healthy mixed-breed dogs; experiment: Serum biochemistry profile before and after apixaban; type: in vivo, dog; design: TP / Bicarbonate: unit not given beside the values; Calcium / Magnesium / Globulin / ALT / AST / GGT / T.bili / Sodium / BUN / Creatinine: unit not given here; details: for ALT / AST / Albumin / BUN / Bicarbonate / Calcium / Creatinine / GGT / Globulin / Magnesium / Sodium / T.bili / TP / Amylase / Cholesterol / Glucose / Phosphate / Potassium / TIBC: individual dogs (Dog 1-6); for Amylase: in U/L (unit assumed); for TIBC: in µg/dL (unit assumed)
Procedure: Catheters were flushed with 0.9% saline, without heparin.
Pairwise comparisons between continuous variables were conducted with Wilcoxon matched-pairs signed rank test, while comparisons of more than two groups were conducted using the Friedman test with Dunn's post-hoc adjustment. […] Comparisons of pharmacodynamic variables between baseline values and those at discrete sampling intervals were performed using the Friedman test with Dunn's post-hoc correction for multiple comparisons. […] Alpha was set at 0.05. Statistical analyses were performed using commercial software (Prism 9, GraphPad, La Jolla, CA).

[4] = system: prothrombin time; details: in vitro, dog plasma fortified with apixaban; cited from earlier work
[5] = target: dog factor Xa; details: in vitro, isolated factor Xa, cited from earlier work
[6] = horses, cited from earlier work
[7] = cats, cited from earlier work
[8] = +30h after PO apixaban, in g/dL (unit assumed)
[9] = +24h after IV apixaban, in mg/dL (unit assumed)
[10] = +30h after PO apixaban, in mg/dL (unit assumed)
[11] = +30h after PO apixaban, in mmol/L (unit assumed)

SMILES: COc1ccc(-n2nc(C(N)=O)c3c2C(=O)N(c2ccc(N4CCCCC4=O)cc2)CC3)cc1 [apixaban]
- TF-TEG K-time versus baseline ([1]; IV 0.18 mg/kg, at 5 min): significantly different from baseline
- TF-TEG R-time versus baseline ([1]; IV 0.18 mg/kg, at 5 min): significantly different from baseline
- TF-TEG alpha angle versus baseline ([1]; IV 0.18 mg/kg, at 5 min): significantly different from baseline
- TF-TEG R-time versus baseline ([1]; IV 0.18 mg/kg, at 15 min ([…])): significantly prolonged
- TF-TEG tracings ([1]; PO 0.2 mg/kg): not consistently affected
- TF-TEG R-time versus baseline ([1]; PO 0.2 mg/kg, at the 12-h timepoint): significantly different from baseline
- Baso ([2]; +24h after IV apixaban): 0.1 (2×) and 0.0 (4×)
- Eos ([2]; +24h after IV apixaban): 0.3 (2×) and 0.4 (2×) and 0.7 (2×)
- HCT ([2]; +24h after IV apixaban): 53 and 52 (2×) and 54 (2×) and 57
- Hgb ([2]; +24h after IV apixaban): 17.7 and 17.2 and 16.8 and 17.5 (2×) and 18.3
- Lymph ([2]; +24h after IV apixaban): 2.3 and 2 (2×) and 3.3 and 1.6 and 3.7
- MCH ([2]; +24h after IV apixaban): 25 (3×) and 23 and 24 (2×)
- MCHC ([2]; +24h after IV apixaban): 33 (2×) and 32 (4×)
- MCV ([2]; +24h after IV apixaban): 73 and 75 and 71 and 74 and 76 (2×)
- Mono ([2]; +24h after IV apixaban): 0.3 (2×) and 0.6 and 0.5 (3×)
- Neut ([2]; +24h after IV apixaban): 4.1 and 5.8 and 5.6 (2×) and 5.1 and 8.0
- RBC ([2]; +24h after IV apixaban): 7.2 (2×) and 6.9 and 7.3 (2×) and 7.4
- WBC ([2]; +24h after IV apixaban): 7.1 and 8.8 and 9.6 and 8.9 and 7.6 and 13
- Baso ([2]; +30h after PO apixaban): 0 (3×) and 0.1 and 0.0 (2×)
- Eos ([2]; +30h after PO apixaban): 0.3 (2×) and 0.2 (2×) and 0.4 and 0.6
- HCT ([2]; +30h after PO apixaban): 56 and 55 and 52 (2×) and 46 and 50
- Lymph ([2]; +30h after PO apixaban): 3.2 and 2 (2×) and 1.6 and 0.8 and 3.6
- MCH ([2]; +30h after PO apixaban): 24 (2×) and 25 (2×) and 23 (2×)
- MCHC ([2]; +30h after PO apixaban): 33 (4×) and 32 (2×)
- MCV ([2]; +30h after PO apixaban): 72 (2×) and 76 and 70 and 75 and 74
- Mono ([2]; +30h after PO apixaban): 0.5 (4×) and 0.4 and 0.3
- Neut ([2]; +30h after PO apixaban): 6.1 (2×) and 5.4 and 7.9 and 5.7 and 7.3
- WBC ([2]; +30h after PO apixaban): 10.1 and 8.3 and 10.8 and 8 and 7.6 and 12.1
- RBC ([2]; +30h after PO apixaban, in 10^6/µL (unit assumed)): 7.8 and 7.3 and 7.4 and 6.2 and 7 and 7.1
- Hgb [2, 8]: 18.6 and 18 and 17 and 15.1 and 16.2 and 16.9
- CBC parameters ([2]; IV, baseline versus 24 h): No changes
- mean corpuscular hemoglobin concentration ([2]; PO, baseline versus 30 h): significant reduction
- ALT ([3]; +24h after IV apixaban): 45 (2×) and 114 and 30 (2×) and 86
- AST ([3]; +24h after IV apixaban): 34 and 44 and 21 and 32 (2×) and 31
- Albumin ([3]; +24h after IV apixaban): 3.9 and 3.4 (2×) and 3.5 and 3.7 and 3.8
- BUN ([3]; +24h after IV apixaban): 16 (2×) and 19 and 30 and 20 and 21
- Bicarbonate ([3]; +24h after IV apixaban): 23 and 18 (2×) and 21 and 19 (2×)
- Calcium ([3]; +24h after IV apixaban): 10.0 (2×) and 8.9 and 10.2 and 9.9 and 9.6
- Creatinine ([3]; +24h after IV apixaban): 0.8 and 0.7 (2×) and 1 (2×) and 0.9
- GGT ([3]; +24h after IV apixaban): 2 (3×) and 3 (2×) and 6
- Globulin ([3]; +24h after IV apixaban): 2.3 and 2.1 (2×) and 2.4 and 2.0 (2×)
- Magnesium ([3]; +24h after IV apixaban): 1.8 (2×) and 1.6 and 1.7 (3×)
- Sodium ([3]; +24h after IV apixaban): 147 and 146 (3×) and 149 and 148
- T.bili ([3]; +24h after IV apixaban): 0.0 (4×) and 0.1 (2×)
- TP ([3]; +24h after IV apixaban): 6.2 and 5.5 and 5.8 (2×) and 5.6 and 5.7
- Amylase ([3]; +24h after IV apixaban): 467 and 362 and 561 and 514 and 451 and 707
- Cholesterol [3, 9]: 174 and 180 and 226 and 129 and 127 and 173
- Glucose [3, 9]: 58 and 39 and 93 and 100 and 85 and 52
- Phosphate [3, 9]: 3.9 and 3.7 and 3.3 and 4.4 and 3.6 and 4.1
- Potassium ([3]; +24h after IV apixaban, in mmol/L (unit assumed)): 4.5 and 4.2 and 4.4 and 4.3
- TIBC ([3]; +24h after IV apixaban): 391 and 352 and 385 and 345 and 313 and 356
- ALT ([3]; +30h after PO apixaban): 26 (2×) and 33 and 36 and 39 and 35
- AST ([3]; +30h after PO apixaban): 34 and 22 and 32 (2×) and 45 and 33
- Albumin ([3]; +30h after PO apixaban): 3.9 and 3.6 (2×) and 3.4 and 3.5 (2×)
- BUN ([3]; +30h after PO apixaban): 19 (2×) and 12 and 10 and 18 and 24
- Calcium ([3]; +30h after PO apixaban): 10.2 (2×) and 9.7 (3×) and 9.8
- Creatinine ([3]; +30h after PO apixaban): 0.9 and 0.8 (2×) and 0.6 and 0.7 and 1
- GGT ([3]; +30h after PO apixaban): 0 (2×) and 4 (2×) and 6 (2×)
- Globulin ([3]; +30h after PO apixaban): 2.1 (3×) and 2.5 and 2 and 2.3
- Magnesium ([3]; +30h after PO apixaban): 1.7 (5×) and 1.8
- Phosphate ([3]; +30h after PO apixaban): 2.8 and 3.9 (2×) and 3.7 (2×) and 3.8
- Sodium ([3]; +30h after PO apixaban): 147 (4×) and 150 and 146
- T.bili ([3]; +30h after PO apixaban): 0.1 (4×) and 0.0 (2×)
- Amylase ([3]; +30h after PO apixaban): 469 and 325 and 515 and 494 and 353 and 638
- TP [3, 8]: 6 and 5.7 and 6.1 and 5.4 and 5.8 and 5.6
- Cholesterol [3, 10]: 198 and 192 and 244 and 106 and 162 and 186
- Glucose [3, 10]: 77 and 93 and 76 and 78 and 102 and 87
- Bicarbonate [3, 11]: 22 and 20 and 17 and 18 and 14 and 19
- Potassium [3, 11]: 4.3 and 4.5 and 3.9 and 4.9 and 4.6 and 4.8
- TIBC ([3]; +30h after PO apixaban): 391 and 331 and 372 and 288 and 336 and 329
- chloride and GGT, baseline versus 24 h post-injection ([3]; IV): statistically significant reductions
- biochemical parameters ([3]; PO, baseline versus 30 h post-dose): no changes
- concentration required to double the prothrombin time [4]: 3,079 ng/ml and 6.7 μM
- inhibitor constant (Ki) [5]: 0.78 ng/mL
- Ki ([5]; read-out: inhibitor constant (Ki)): 1.7 nM
- plasma concentrations after oral administration ([6]; oral): did not lead to quantifiable apixaban concentrations in plasma
- time by which concentrations declined below the lower limit of quantitation ([6]; single injection): ≤ 8 h
- half-life [6]: 1.3 h
- protein binding [6]: highly protein bound
- time of peak aXa activity ([7]; following oral administration): 4 h
- half-life ([7]; intravenously administered apixaban): 1.13 h
- half-life ([7]; oral apixaban): 3.3 h
- bioavailability ([7]; oral): 85.5%
